Test results: US8741906B2 (priority 2011, dated 2014)
Like-named read-outs stand apart in the source and are kept apart here.

Experiments:
[1] = biological target: T1, human CB2 receptors (Homo sapiens, UniProt P34972); experiment: functional cAMP assay, human CB2; format: cell-based
T1 construct: expressed in transfected cells; host or cells: CHO cells
In short: (§1)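 CHO-hCB1/hCB2 cells, KRB + 1 mM IBMX preincubation 30 min 30 °C; cpd 30 min 30 °C; lysis + TR-FRET cAMP detection, 2 h RT; cAMP from std curve; EC50.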

[2] = biological target: T2, human CB1 receptors (Homo sapiens, UniProt P21554); experiment: functional cAMP assay, human CB1; format: cell-based
T2 construct: expressed in transfected cells; host or cells: CHO cells
T2 sequence (P21554 whole entry): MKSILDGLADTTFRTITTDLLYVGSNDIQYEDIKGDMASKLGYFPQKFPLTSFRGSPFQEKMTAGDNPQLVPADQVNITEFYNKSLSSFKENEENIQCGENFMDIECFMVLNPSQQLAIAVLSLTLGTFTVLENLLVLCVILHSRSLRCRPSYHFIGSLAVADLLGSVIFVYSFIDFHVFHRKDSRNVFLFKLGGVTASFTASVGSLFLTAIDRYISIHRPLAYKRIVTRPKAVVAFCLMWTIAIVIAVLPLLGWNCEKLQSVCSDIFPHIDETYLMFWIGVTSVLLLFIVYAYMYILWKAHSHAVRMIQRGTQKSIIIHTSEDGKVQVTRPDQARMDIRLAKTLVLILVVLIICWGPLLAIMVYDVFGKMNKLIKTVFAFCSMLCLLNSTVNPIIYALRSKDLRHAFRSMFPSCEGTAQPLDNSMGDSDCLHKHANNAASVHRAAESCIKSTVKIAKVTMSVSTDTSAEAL
In short: as §1

[3] = CHO cells expressing human CB2, cAMP, read-out: human CB2 EC50
[4] = CHO cells expressing human CB1, cAMP, read-out: human CB1 EC50

T1 sequence (P34972 whole entry): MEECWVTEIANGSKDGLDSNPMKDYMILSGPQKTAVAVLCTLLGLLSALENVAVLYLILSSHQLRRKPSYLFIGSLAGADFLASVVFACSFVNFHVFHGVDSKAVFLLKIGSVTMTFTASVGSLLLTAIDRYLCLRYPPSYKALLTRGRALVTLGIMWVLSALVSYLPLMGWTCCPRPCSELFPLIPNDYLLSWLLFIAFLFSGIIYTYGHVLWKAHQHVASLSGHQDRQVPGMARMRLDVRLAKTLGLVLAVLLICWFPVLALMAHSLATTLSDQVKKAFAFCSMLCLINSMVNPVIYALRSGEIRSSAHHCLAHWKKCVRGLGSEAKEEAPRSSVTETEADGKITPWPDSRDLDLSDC

| EC50 [1] [nM] | EC50 [2] [µM] | SMILES | EC50 [1, 3] [nM] | EC50 [2, 4] [µM] |
| --- | --- | --- | --- | --- |
| – | – | CC(C)(C)c1nc(OC2CCCC2)c2nnn(Cc3ccccc3Cl)c2n1 [Example 212, 5-tert-Butyl-3-(2-chloro-benzyl)-7-cyclopentyloxy-3H-[1,2,3]triazolo[4,5-d]pyrimidine] | 22 | > 10 |
| – | – | CC(C)(C)COc1nc(C(C)(C)C)nc2c1nnn2Cc1ccccc1Cl [Example 213, 5-tert-Butyl-3-(2-chloro-benzyl)-7-(2,2-dimethyl-propoxy)-3H-[1,2,3]triazolo[4,5-d]pyrimidine] | 59.6 | > 10 |
| – | – | CC(Oc1nc(C(C)(C)C)nc2c1nnn2Cc1ccccc1Cl)C(F)(F)F (stereo not shown) [Example 214, 5-tert-Butyl-3-(2-chloro-benzyl)-7-(2,2,2-trifluoro-1-methyl-ethoxy)-3H-[1,2,3]triazolo[4,5-d]pyrimidine] | 9.4 | > 10 |
| – | – | C[C@H](Oc1nc(C(C)(C)C)nc2c1nnn2Cc1ccccc1Cl)C(F)(F)F [Example 215, 5-tert-Butyl-3-(2-chloro-benzyl)-7-((S)-2,2,2-trifluoro-1-methyl-ethoxy)-3H-[1,2,3]triazolo[4,5-d]pyrimidine] | 24.7 | > 10 |
| – | – | C[C@@H](Oc1nc(C(C)(C)C)nc2c1nnn2Cc1ccccc1Cl)C(F)(F)F [Example 216, 5-tert-Butyl-3-(2-chloro-benzyl)-7-((R)-2,2,2-trifluoro-1-methyl-ethoxy)-3H-[1,2,3]triazolo[4,5-d]pyrimidine] | 10.4 | > 10 |
| – | – | CC(C)(C)c1nc(N2CC[C@H](O)C2)c2nnn(Cc3ccccc3)c2n1 [Example 217, (3S)-1-(3-benzyl-5-tert-butyl-triazolo[4,5-d]pyrimidin-7-yl)pyrrolidin-3-ol] | 3.3 | > 10 |
| – | – | CC(C)(C)c1nc(N2CCC(O)C2)c2nnn(Cc3ccccc3Cl)c2n1 (stereo not shown) [Example 218, 1-(5-tert-butyl-3-(2-chlorobenzyl)-3H-[1,2,3]triazolo[4,5-d]pyrimidin-7-yl)pyrrolidin-3-ol] | 0.5 | > 10 |
| 32.9 | > 10 | Cn1nnnc1Cn1nnc2c(N3CC[C@@H](O)C3)nc(C(C)(C)C)nc21 [Example 219, (R)-1-(5-tert-butyl-3-((1-methyl-1H-tetrazol-5-yl)methyl)-3H-[1,2,3]triazolo[4,5-d]pyrimidin-7-yl)pyrrolidin-3-ol] | – | – |
| 4.7 | > 10 | Cn1nnnc1Cn1nnc2c(N3CCC(O)C3)nc(C(C)(C)C)nc21 (stereo not shown) [Example 220, 1-(5-tert-butyl-3-((1-methyl-1H-tetrazol-5-yl)methyl)-3H-[1,2,3]triazolo[4,5-d]pyrimidin-7-yl)pyrrolidin-3-ol] | – | – |
| – | – | CC(C)(C)c1nc(N2CC[C@](C)(O)C2)c2nnn(Cc3ccccc3Cl)c2n1 [Example 221-a, (S)-1-(5-tert-butyl-3-(2-chlorobenzyl)-3H-[1,2,3]triazolo[4,5-d]pyrimidin-7-yl)-3-methylpyrrolidin-3-ol] | 3 | 1.8 |
| – | – | CC(C)(C)c1nc(N2CC[C@@](C)(O)C2)c2nnn(Cc3ccccc3Cl)c2n1 [Example 221-b, (R)-1-(5-tert-butyl-3-(2-chlorobenzyl)-3H-[1,2,3]triazolo[4,5-d]pyrimidin-7-yl)-3-methylpyrrolidin-3-ol] | 7 | 0.853 |
| – | – | CC(C)(C)c1nc(N2CC[C@](C)(O)C2)c2nnn(Cc3ccccc3C(F)(F)F)c2n1 [Example 222-a, (S)-1-(5-tert-butyl-3-(2-(trifluoromethyl)benzyl)-3H-[1,2,3]triazolo[4,5-d]pyrimidin-7-yl)-3-methylpyrrolidin-3-ol] | 0.8 | 0.894 |
| – | – | CC(C)(C)c1nc(N2CC[C@@](C)(O)C2)c2nnn(Cc3ccccc3C(F)(F)F)c2n1 [Example 222-b, (R)-1-(5-tert-butyl-3-(2-(trifluoromethyl)benzyl)-3H-[1,2,3]triazolo[4,5-d]pyrimidin-7-yl)-3-methylpyrrolidin-3-ol] | 5.2 | > 10 |
| – | – | CC(C)(C)c1nc(N2CC[C@](C)(O)C2)c2nnn(Cc3ccccc3S(C)(=O)=O)c2n1 [Example 223-a, (S)-1-(5-tert-butyl-3-(2-(methylsulfonyl)benzyl)-3H-[1,2,3]triazolo[4,5-d]pyrimidin-7-yl)-3-methylpyrrolidin-3-ol] | 0.4 | 0.241 |
| – | – | CC(C)(C)c1nc(N2CC[C@@](C)(O)C2)c2nnn(Cc3ccccc3S(C)(=O)=O)c2n1 [Example 223-b, (R)-1-(5-tert-butyl-3-(2-(methylsulfonyl)benzyl)-3H-[1,2,3]triazolo[4,5-d]pyrimidin-7-yl)-3-methylpyrrolidin-3-ol] | 3 | 0.246 |
| – | – | CC(C)(C)c1nc(N2CC[C@](C)(O)C2)c2nnn(Cc3ncccc3Cl)c2n1 [Example 224-a, (S)-1-(5-tert-butyl-3-((3-chloropyridin-2-yl)methyl)-3H-[1,2,3]triazolo[4,5-d]pyrimidin-7-yl)-3-methylpyrrolidin-3-ol] | 1.1 | 0.899 |
| – | – | CC(C)(C)c1nc(N2CC[C@@](C)(O)C2)c2nnn(Cc3ncccc3Cl)c2n1 [Example 224-b, (R)-1-(5-tert-butyl-3-((3-chloropyridin-2-yl)methyl)-3H-[1,2,3]triazolo[4,5-d]pyrimidin-7-yl)-3-methylpyrrolidin-3-ol] | 6.4 | > 10 |
| – | – | Cc1nnc(Cn2nnc3c(N4CC[C@](C)(O)C4)nc(C(C)(C)C)nc32)o1 [Example 225-a, (S)-1-(5-tert-butyl-3-((5-methyl-1,3,4-oxadiazol-2-yl)methyl)-3H-[1,2,3]triazolo[4,5-d]pyrimidin-7-yl)-3-methylpyrrolidin-3-ol] | 29.1 | > 10 |
| – | – | Cc1nnc(Cn2nnc3c(N4CC[C@@](C)(O)C4)nc(C(C)(C)C)nc32)o1 [Example 225-b, (R)-1-(5-tert-butyl-3-((5-methyl-1,3,4-oxadiazol-2-yl)methyl)-3H-[1,2,3]triazolo[4,5-d]pyrimidin-7-yl)-3-methylpyrrolidin-3-ol] | 175 | > 10 |
| – | – | Cc1noc(Cn2nnc3c(N4CC[C@](C)(O)C4)nc(C(C)(C)C)nc32)n1 [Example 226-a, (S)-1-(5-tert-butyl-3-((3-methyl-1,2,4-oxadiazol-5-yl)methyl)-3H-[1,2,3]triazolo[4,5-d]pyrimidin-7-yl)-3-methylpyrrolidin-3-ol] | 57 | > 10 |
| – | – | Cc1noc(Cn2nnc3c(N4CC[C@@](C)(O)C4)nc(C(C)(C)C)nc32)n1 [Example 226-b, (R)-1-(5-tert-butyl-3-((3-methyl-1,2,4-oxadiazol-5-yl)methyl)-3H-[1,2,3]triazolo[4,5-d]pyrimidin-7-yl)-3-methylpyrrolidin-3-ol] | 233 | > 10 |
| – | – | Cn1nnnc1Cn1nnc2c(N3CC[C@](C)(O)C3)nc(C(C)(C)C)nc21 [Example 227-a, (S)-1-(5-tert-butyl-3-((1-methyl-1H-tetrazol-5-yl)methyl)-3H-[1,2,3]triazolo[4,5-d]pyrimidin-7-yl)-3-methylpyrrolidin-3-ol] | 18.7 | > 10 |
| – | – | Cn1nnnc1Cn1nnc2c(N3CC[C@@](C)(O)C3)nc(C(C)(C)C)nc21 [Example 227-b, (R)-1-(5-tert-butyl-3-((1-methyl-1H-tetrazol-5-yl)methyl)-3H-[1,2,3]triazolo[4,5-d]pyrimidin-7-yl)-3-methylpyrrolidin-3-ol] | 43.5 | > 10 |
| – | – | Cc1nonc1Cn1nnc2c(N3CC[C@](C)(O)C3)nc(C(C)(C)C)nc21 [Example 228-a, (S)-1-(5-tert-butyl-3-((4-methyl-1,2,5-oxadiazol-3-yl)methyl)-3H-[1,2,3]triazolo[4,5-d]pyrimidin-7-yl)-3-methylpyrrolidin-3-ol] | 1.8 | > 10 |
| – | – | Cc1nonc1Cn1nnc2c(N3CC[C@@](C)(O)C3)nc(C(C)(C)C)nc21 [Example 228-b, (R)-1-(5-tert-butyl-3-((4-methyl-1,2,5-oxadiazol-3-yl)methyl)-3H-[1,2,3]triazolo[4,5-d]pyrimidin-7-yl)-3-methylpyrrolidin-3-ol] | 3.3 | > 10 |
| – | – | CC(C)(C)c1nc(N2CC[C@](C)(O)C2)c2nnn(CCC(F)(F)F)c2n1 [Example 229-a, (S)-1-(5-tert-butyl-3-(3,3,3-trifluoropropyl)-3H-[1,2,3]triazolo[4,5-d]pyrimidin-7-yl)-3-methylpyrrolidin-3-ol] | 30.4 | > 10 |
| – | – | CC(C)(C)c1nc(N2CC[C@@](C)(O)C2)c2nnn(CCC(F)(F)F)c2n1 [Example 229-b, (R)-1-(5-tert-butyl-3-(3,3,3-trifluoropropyl)-3H-[1,2,3]triazolo[4,5-d]pyrimidin-7-yl)-3-methylpyrrolidin-3-ol] | 37.4 | > 10 |
| – | – | CC(C)(C)c1nc(N2CC[C@](C)(O)C2)c2nnn(Cc3nnnn3C3CC3)c2n1 [Example 230-a, (S)-1-(5-tert-butyl-3-((1-cyclopropyl-1H-tetrazol-5-yl)methyl)-3H-[1,2,3]triazolo[4,5-d]pyrimidin-7-yl)-3-methylpyrrolidin-3-ol] | 2.7 | > 10 |
| – | – | CC(C)(C)c1nc(N2CC[C@@](C)(O)C2)c2nnn(Cc3nnnn3C3CC3)c2n1 [Example 230-b, (R)-1-(5-tert-butyl-3-((1-cyclopropyl-1H-tetrazol-5-yl)methyl)-3H-[1,2,3]triazolo[4,5-d]pyrimidin-7-yl)-3-methylpyrrolidin-3-ol] | 13.6 | > 10 |
